Experimental data reported in PMC7725785, “TRIB3 promotes MYC-associated lymphoma development through suppression of UBE3B-mediated MYC degradation” (Nature Communications, 2020).
Where a SMILES comes first, the peptide text is derived from it. [ ]: non-standard residue; d: D form.

How the values were obtained:
MAX and MYC = test: SPR kinetic interaction of MAX and MYC proteins with indicated peptides (CM1-CM4); format: binding; details: result in words
Protocol: (§1) Binding kinetics between MYC and UBE3B, TRIB3 and the indicated α helical peptides, MAX and the indicated α helical peptides, or MYC and MAX were analyzed using a BIAcore T200 instrument (GE Healthcare, CA, USA) as described previously. Briefly, binding reactions were performed in HBS-EP buffer (GE Healthcare) at pH 7.4. TRIB3/MYC/MAX protein was coated on the flow cell of a CM5 sensor chip by direct immobilization. Another flow cell, not coated with an immobilized protein, was used to evaluate nonspecific binding. The binding analyses were performed at a flow rate of 25 μl/min at 25 °C. A total of 0–200 nM peptide or 0–500 nM TRIB3 protein was passed over the surface of the sensor chip. The association rate constant (Ka) and the dissociation rate constant (Kd) were calculated according to the BIA evaluation software. The dissociation constant (KD) was determined by Kd/Ka.

MAX protein = test: SPR kinetic interaction of α-helical peptides (CM1-CM4) with MAX; format: binding; details: result in words
Protocol: as §1

MYC and UBE3B = test: In vitro coimmunoprecipitation of purified MYC, UBE3B and TRIB3 with or without CM4; format: binding; details: purified His-MYC, His-UBE3B and GST-TRIB3 with or without CM4; result in words
Protocol: Co-IP experiments were performed as described in the section of immunoprecipitation.

TRIB3 and MYC = test: SPR kinetic interaction of TRIB3 and MYC proteins with or without CM4; format: binding; details: in vitro, result in words
Protocol: as §1

MYC and MAX = test: Duolink PLA of MYC and MAX colocalization in Raji cells; format: cell-based, human; details: peptide 4 µM 12 hr, MG132 20 μM 6 hr, result in words
Protocol: A total of 1 × 10^6 cells were seeded overnight in a six-well plate. The next day, cells were collected, fixed in 4% paraformaldehyde solution, permeabilized with 0.5% Triton-X100, blocked with Duolink® Blocking Solution, and probed with antibodies directed against MYC (R&D, NB600-302, 1:100), TRIB3 (Novus, H00057761-M03, 1:100), UBE3B (Invitrogen, PA5-59390, 1:100), and MAX (Cell Signaling Technology, #4739, 1:100). The cells were then treated with the Duolink In Situ Red Starter Mouse/Rabbit kit (Sigma Aldrich, DUO92101-1KT) according to the manufacturer’s instructions. Images were captured with an OLYMPUS confocal microscope.

TRIB3 protein = target: T1, TRIB3 protein (Homo sapiens, UniProt Q96RU7); test: SPR kinetic interaction of α-helical peptides (CM1-CM4) with TRIB3; format: binding
T1 construct: GST; purchased Sinobiological Inc. 10731-H09B
T1 sequence (Q96RU7 1-358): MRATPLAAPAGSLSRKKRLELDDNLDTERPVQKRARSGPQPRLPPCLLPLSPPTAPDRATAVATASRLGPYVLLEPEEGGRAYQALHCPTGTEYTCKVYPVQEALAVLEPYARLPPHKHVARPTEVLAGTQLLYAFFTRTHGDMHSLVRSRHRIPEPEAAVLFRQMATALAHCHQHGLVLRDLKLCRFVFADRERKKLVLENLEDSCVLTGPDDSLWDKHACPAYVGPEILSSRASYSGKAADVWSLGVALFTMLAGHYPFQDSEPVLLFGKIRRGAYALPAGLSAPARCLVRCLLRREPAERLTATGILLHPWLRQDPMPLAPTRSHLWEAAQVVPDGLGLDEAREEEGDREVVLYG
Protocol: as §1

[1] = tested on: MYC polyubiquitination by UBE3B; test: In vitro ubiquitination assay of MYC (UBE3B, UBCH3); format: biochemical; details: result in words
Protocol: In vitro ubiquitination was performed according to the protocol provided with the Ubiquitination Kit (UW9920, BioMol) with some modifications. Briefly, MYC-His, UBE3B-His, UBE3B-(R346Q)-His, UBE3B-(C1036A)-His, and UBE3B-C-His were expressed in free-style 293 cells and purified by a Ni2+-NTA resin (GE). The assays were carried out at 37 °C in a 50-μl reaction mixture containing 20 U/ml inorganic pyrophosphatase (Sigma Aldrich), 5 mM dithiothreitol, 5 mM Mg-ATP, 100 nM E1, […], […], […], and […]. […] To obtain accurate results, the PAGE gel was run for a relatively long time until protein bands smaller than 40 kDa ran off the bottom line of the gel as judged by the protein molecular weight marker. Then, the protein was transferred to a polyvinylidene difluoride membrane (PVDF). To reduce the background noise, an anti-MYC antibody (Cell Signaling Technology, 1:1000) was used to detect MYC polyubiquitination via western blot analysis instead of the HRP-Streptavidin detection system recommended by the kit for the detection of biotinylated ubiquitin.

CC(C)C[C@@H](NC(=O)[C@@H](CCC(N)=O)NC(=O)[C@@H](CCC(=O)O)NC(=O)[C@@H](CC(C)C)NC(=O)[C@@H](CCCCN)NC(=O)[C@@H](Cc1c[nH]cn1)NC(=O)[C@@H](CCCCN)NC(=O)[C@@H](CC(C)C)NC(=O)[C@@H](CCC(N)=O)NC(=O)[C@@H](CCC(=O)O)NC(=O)[C@@H](CCCNC(=N)N)NC(=O)[C@@H](CCCNC(=N)N)NC(=O)[C@H](N)CCCCN)C(=O)N[C@H](CCCNC(=N)N)C(=O)O [CM4] (H-[dK][dR][dR][dE][dQ][dL][dK][dH][dK][dL][dE][dQ][dL][dR]-OH; N-terminus and C-terminus assumed)
effect on the binding of MYC and MAX (MAX and MYC): not
ability to bind MAX (MAX protein): not
binding of MYC and UBE3B in vitro (MYC and UBE3B): increased the binding of MYC and UBE3B
effect on the binding affinity of TRIB3 and MYC (TRIB3 and MYC): decreased the binding affinity of TRIB3 and MYC
colocalization of MYC and MAX in MG132-treated Raji cells (MYC and MAX): did not affect the colocalization of MYC and MAX
Kd (TRIB3 protein; BIAcore T200, HBS-EP pH 7.4, 25 °C, printed in Fig. 6a): 0.0764 µM
kon (TRIB3 protein; BIAcore T200, HBS-EP pH 7.4, 25 °C, printed in Fig. 6a, read-out: ka): 1.01e+06 M⁻¹ s⁻¹
binding affinity for TRIB3 (TRIB3 protein; result in words): high binding affinity
polyubiquitination of MYC in vitro [1]: restored the polyubiquitination of MYC
